Laboratory results: US8906825B2, “Herbicidal compositions comprising 4-amino-3-chloro-5-fluoro-6-(4-chloro-2-fluoro-3-methoxyphenyl) pyridine-2-carboxylic acid or a derivative thereof and triazolopyrimidine sulfonamides” (Dow AgroSciences LLC, priority 2012, dated 2014)

Assays:
Type in all cases: in vivo
[1] = system: LEFCH (Leptochloa chinensis (L.) Nees, Chinese sprangletop); test: Postemergence foliar-applied herbicidal mixtures, direct seeded rice, greenhouse (Example I)
From the text: (§1) Seeds or nutlets of the desired test plant species were planted in a soil matrix prepared by mixing a loam or sandy loam soil (e.g., 28.6 percent silt, 18.8 percent clay, and 52.6 percent sand, with a pH of about 5.8 and an organic matter content of about 1.8 percent) and calcareous grit in an 80 to 20 ratio. The soil matrix was contained in plastic pots with a volume of 1 quart and a surface area of 83.6 square centimeters (cm^2). When required to ensure good germination and healthy plants, a fungicide treatment and/or other chemical or physical treatment was applied. The plants were grown for 8-22 days in a greenhouse with an approximate 14 h photoperiod which was maintained at about 29° C. during the day and about 26° C. during the night. Nutrients (Peters Excel® 15-5-15 5-Ca 2-Mg and iron chelate) were applied in the irrigation solution as needed and water was added on a regular basis. Supplemental lighting was provided with overhead metal halide 1000-Watt lamps as necessary. The plants were employed for testing when they reached the first through fourth true leaf stage.
(§2) Treatments consisted of the acid or esters of 4-amino-3-chloro-5-fluoro-6-(4-chloro-2-fluoro-3-methoxy-phenyl)pyridine-2-carboxylic acid (Compound A), each formulated as an SC (suspension concentrate), and various herbicidal components alone and in combination. Forms of compound A were applied on an acid equivalent basis.
(§3) Other herbicidal components were applied on an active ingredient basis and included acetolactate synthase (ALS)-inhibiting herbicides (sulfonamide chemical class) penoxsulam formulated as Grasp® SC, diclosulam formulated as Strongarm®, and cloransulam-methyl formulated as FirstRate®, flumetsulam formulated as Flumetsulam WG, and metosulam formulated as Eclipse®.
(§4) Treatment requirements were calculated based upon the rates being tested, the concentration of active ingredient or acid equivalent in the formulation, and a 12 mL application volume at a rate of 187 L/ha.
(§5) For treatments comprised of formulated compounds, measured amounts of compounds were placed individually in 25 mL glass vials and diluted in a volume of 1.25% (v/v) Agri-Dex® crop oil concentrated to obtain 12× stock solutions. […] Application solutions were prepared by adding an appropriate amount of each stock solution (e.g., 1 mL) and diluted to the appropriate final concentrations with the addition of 10 mL of an aqueous mixture of 1.25% (v/v) crop oil concentrate so that the final spray solutions contained 1.25+/−0.05% (v/v) crop oil concentrate.
(§6) All stock solutions and applications solutions were visually inspected for compound compatibility prior to application. Spray solutions were applied to the plant material with an overhead Mandel track sprayer equipped with an 8002E nozzle calibrated to deliver 187 L/ha over an application area of 0.503 m^2 at a spray height of 18 to 20 inches (46 to 50 cm) above average plant canopy height. Control plants were sprayed in the same manner with the solvent blank.
(§7) The treated plants and control plants were placed in a greenhouse as described above and watered by sub-irrigation to prevent wash-off of the test compounds. After approximately 3 weeks, the condition of the test plants as compared with that of the untreated plants was determined visually and scored on a scale of 0 to 100 percent where 0 corresponds to no injury or growth inhibition and 100 corresponds to complete kill.
(§8) Colby's equation was used to determine the herbicidal effects expected from the mixtures (Colby, S. R. 1967. Calculation of the synergistic and antagonistic response of herbicide combinations. Weeds 15:20-22.).
(§9) The following equation was used to calculate the expected activity of mixtures containing two active ingredients, A and B: Expected=A+B−(A×B/100)

[2] = system: CYPIR (Cyperus iria L., rice flatsedge); test: as above
From the text: as §1, §2, §3, §4, §5, §6, §7, §8, §9

[3] = system: DIGSA (Digitaria sanguinalis (L.) Scop., large crabgrass); test: as above; conditions: Cloransulam-methyl 2.19 gai/ha
From the text: as §1, §2, §3, §4, §5, §6, §7, §8, §9

[4] = system: CYPDI (Cyperus difformis L., smallflower umbrella sedge); test: In-water applied herbicidal mixtures, transplanted paddy rice, greenhouse (Example II)
Protocol: (§10) Weed seeds or nutlets of the desired test plant species were planted in puddled soil (mud) prepared by mixing a shredded, non-sterilized mineral soil (50.5 percent silt, 25.5 percent clay, and 24 percent sand, with a pH of about 7.6 and an organic matter content of about 2.9 percent) and water at a 1:1 volumetric ratio. The prepared mud was dispensed in 365 mL aliquots into 16-ounce (oz.) non-perforated plastic pots with a surface area of 86.59 square centimeters (cm^2) leaving a headspace of 3 centimeters in each pot. Mud was allowed to dry overnight prior to planting or transplanting. Rice seeds were planted in Sun Gro MetroMix® 306 planting mixture, which typically has a pH of 6.0 to 6.8 and an organic matter content of about 30 percent, in plastic plug trays. Seedlings at the second or third leaf stage of growth were transplanted into 840 mL of mud contained in 32-oz. non-perforated plastic pots with a surface area of 86.59 cm^2 4 days prior to herbicide application. The paddy was created by filling the headspace of the pots with 2.5 to 3 cm of water. When required to ensure good germination and healthy plants, a fungicide treatment and/or other chemical or physical treatment was applied. The plants were grown for 4-22 days in a greenhouse with an approximate 14 h photoperiod which was maintained at about 29′C during the day and about 26° C. during the night. Nutrients were added as Osmocote® (19:6:12, N:P:K+minor nutrients) at 2 g per 16-oz. pot and 4 g per 32-oz. pot. Water was added on a regular basis to maintain the paddy flood, and supplemental lighting was provided with overhead metal halide 1000-Watt lamps as necessary. The plants were employed for testing when they reached the first through fourth true leaf stage.
(§11) Treatments consisted of the acid or esters of 4-amino-3-chloro-5-fluoro-6-(4-chloro-2-fluoro-3-methoxy-phenyl)pyridine-2-carboxylic acid (compound A) each formulated as an SC and various herbicidal components alone and in combination. Forms of compound A were applied on an acid equivalent basis.
(§12) Other herbicidal components were applied on an active ingredient basis and included acetolactate synthase (ALS)-inhibiting herbicides (sulfonamide chemical class) penoxsulam formulated as Grasp® SC (GF-443), diclosulam formulated as Strongarm®, and cloransulam-methyl formulated as FirstRate®.
(§13) Treatment requirements for each compound or herbicidal component were calculated based upon the rates being tested, the concentration of active ingredient or acid equivalent in the formulation, an application volume of 2 mL per component per pot, and an application area of 86.59 cm^2 per pot.
(§14) For formulated compounds, a measured amount was placed in an individual 100 or 200 mL glass vial and was dissolved in a volume of 1.25% (v/v) Agri-Dex® crop oil concentrate to obtain each application solution.
(§15) Applications were made by injecting with a pipetter appropriate amounts of the application solutions, individually and sequentially, into the aqueous layer of the paddy. Control plants were treated in the same manner with the solvent blank. Applications were made so that all treated plant material received the same concentrations of acetone and crop oil concentrate.
as §7, with “water was added as needed” for “watered by sub-irrigation”, “maintain a paddy flood.” for “prevent wash-off of the test compounds.”, “weeks” for “weeks,”
as §8, §9

[5] = system: ECHCG (Echinochloa crusgalli (L.) Beauv., barnyardgrass); test: as above; conditions: Cloransulam-methyl 17.5 gai/ha
Protocol: as §10, §11, §12, §13, §14, §15
as §7, with “water was added as needed” for “watered by sub-irrigation”, “maintain a paddy flood.” for “prevent wash-off of the test compounds.”, “weeks” for “weeks,”
as §8, §9

[6] = system: FIMMI (Fimbristylis miliacea (L.) Vahl, globe fringerush); test: as above
Protocol: as §10, §11, §12, §13, §14, §15
as §7, with “water was added as needed” for “watered by sub-irrigation”, “maintain a paddy flood.” for “prevent wash-off of the test compounds.”, “weeks” for “weeks,”
as §8, §9

[7] = system: CIRAR (Cirsium arvense (L.) Scop., Canada thistle); test: Postemergence foliar-applied herbicidal mixtures, cereal crops, greenhouse (Example III); conditions: Pyroxsulam 3.75 gai/ha, visual score 0 to 100 percent after 20-22 days
Protocol: Seeds of the desired test plant species were planted in Sun Gro MetroMix® 306 planting mixture, which typically has a pH of 6.0 to 6.8 and an organic matter content of about 30 percent, in plastic pots with a surface area of 103.2 square centimeters (cm^2). […] The plants were grown for 7-36 days in a greenhouse with an approximate 14 hour photoperiod which was maintained at about 18° C. during the day and about 17° C. during the night. Nutrients and water were added on a regular basis and supplemental lighting was provided with overhead metal halide 1000-Watt lamps as necessary. The plants were employed for testing when they reached the second or third true leaf stage.
Treatments consisted of the benzyl ester of 4-amino-3-chloro-5-fluoro-6-(4-chloro-2-fluoro-3-methoxy-phenyl)pyridine-2-carboxylic acid (Compound A), formulated as an SC, a second cereal herbicide alone and then both in combination.
Other herbicidal components were applied on an active ingredient basis and included acetolactate synthase (ALS)-inhibiting herbicides (sulfonamide chemical class) florasulam formulated as Derby® and pyroxsulam formulated as PowerFlex®. A measured aliquot of benzyl ester of 4-amino-3-chloro-5-fluoro-6-(4-chloro-2-fluoro-3-methoxy-phenyl)pyridine-2-carboxylic acid (Compound A) was placed in 25 milliliter (mL) glass vials and diluted in a volume of 1.25% (v/v) AgriDex® crop oil concentrated to obtain a stock solution. Compound requirements are based upon a 12 mL application volume at a rate of 187 liters per hectare (L/ha). […] Formulated compounds were applied to the plant material with an overhead Mandel track sprayer equipped with an 8002E nozzle calibrated to deliver 187 L/ha over an application area of 0.503 square meters (m^2) at a spray height of 18 inches (46 cm) above average plant canopy. Control plants were sprayed in the same manner with the solvent blank.
as §7, with “20-22 days,” for “approximately 3 weeks,”, “control” for “untreated”, “injury” for “injury or growth inhibition”
as §8, §9

SMILES: COc1cc(OC)n2nc(S(=O)(=O)Nc3c(Cl)ccc(C)c3Cl)nc2n1 [Metosulam, N-(2,6-dichloro-3-methylphenyl)-5,7-dimethoxy[1,2,4]triazolo[1,5-a]pyrimidine-2-sulfonamide, reference compound]
- Visual Weed Control (%) - 22 DAA LEFCH Obs ([1]; Metosulam 6.25 gai/ha): 15%

SMILES: CCOc1nc(F)cc2nc(S(=O)(=O)Nc3c(Cl)cccc3C(=O)OC)nn12 [Cloransulam-methyl, methyl 3-chloro-2-[[(5-ethoxy-7-fluoro[1,2,4]triazolo[1,5-c]pyrimidin-2-yl)sulfonyl]amino]benzoate, reference compound]
- Visual Weed Control (%) - 20 DAA CYPIR Obs ([2]; Cloransulam-methyl 4.38 gai/ha): 70%
- Visual Weed Control (%) - 20 DAA CYPIR Obs ([2]; Cloransulam-methyl 8.75 gai/ha): 85%
- Visual Weed Control (%) - 20 DAA DIGSA Obs [3]: 10%
- Visual Weed Control (%) - 20 DAA LEFCH Obs ([1]; Cloransulam-methyl 2.19 gai/ha, Table 7): 0%
- Visual Weed Control (%) - 20 DAA LEFCH Obs ([1]; Cloransulam-methyl 4.38 gai/ha, Table 6): 0%
- Visual Weed Control (%) - 20 DAA LEFCH Obs ([1]; Cloransulam-methyl 4.38 gai/ha, Table 7): 0%
- Visual Weed Control (%) - 20 DAA LEFCH Obs ([1]; Cloransulam-methyl 8.75 gai/ha, Table 6): 0%
- Visual Weed Control (%) - 21 DAA CYPDI Obs ([4]; Cloransulam-methyl 17.5 gai/ha): 40%
- Visual Weed Control (%) - 21 DAA CYPDI Obs ([4]; Cloransulam-methyl 35 gai/ha): 80%
- Visual Weed Control (%) - 22 DAA ECHCG Obs [5]: 50%
- Visual Weed Control (%) - 21 DAA FIMMI Obs ([6]; Cloransulam-methyl 17.5 gai/ha, Table 14): 40%
- Visual Weed Control (%) - 21 DAA FIMMI Obs ([6]; Cloransulam-methyl 17.5 gai/ha, Table 15): 40%
- Visual Weed Control (%) - 21 DAA FIMMI Obs ([6]; Cloransulam-methyl 35 gai/ha, Table 14): 60%
- Visual Weed Control (%) - 21 DAA FIMMI Obs ([6]; Cloransulam-methyl 35 gai/ha, Table 15): 60%

SMILES: COc1cc(OC)n2nc(NS(=O)(=O)c3c(C(F)(F)F)ccnc3OC)nc2n1 [Pyroxsulam, N-(5,7-dimethoxy[1,2,4]triazolo[1,5-a]pyrimidin-2-yl)-2-methoxy-4-(trifluoromethyl)-3-pyridinesulfonamide, reference compound]
- CIRAR Obs [7]: 60%
